Assay results as given in PubChem BioAssay (NCI).
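Interpolation was linear, between the two tested concentrations surrounding the appropriate level; five concentrations were tested over 48 hours in 96-well plates. At the GI50, growth is halved. TGI marks complete inhibition of growth.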

Key:
Assay in all cases: NCI tumour cell line growth inhibition, 48 h
NCI-H522 lung = test system: NCI-H522 lung
DU-145 prostate = test system: DU-145 prostate
SF-268 CNS = test system: SF-268 CNS
SNB-19 CNS = test system: SNB-19 CNS
OVCAR-8 ovarian = test system: OVCAR-8 ovarian
HT29 colon = test system: HT29 colon
SK-MEL-2 melanoma = test system: SK-MEL-2 melanoma
RPMI-8226 leukemia = test system: RPMI-8226 leukemia

SMILES | GI50 (NCI-H522 lung) [µM] | TGI (NCI-H522 lung) [µM] | GI50 (DU-145 prostate) [µM] | TGI (DU-145 prostate) [µM] | GI50 (SF-268 CNS) [µM] | TGI (SF-268 CNS) [µM] | GI50 (SNB-19 CNS) [µM] | TGI (SNB-19 CNS) [µM] | GI50 (OVCAR-8 ovarian) [µM] | TGI (OVCAR-8 ovarian) [µM] | GI50 (HT29 colon) [µM] | TGI (HT29 colon) [µM] | GI50 (SK-MEL-2 melanoma) [µM] | TGI (SK-MEL-2 melanoma) [µM] | GI50 (RPMI-8226 leukemia) [µM] | TGI (RPMI-8226 leukemia) [µM]
N#CC1=C(N)Oc2c(ccc3ccccc23)C1c1ccccc1Cl (stereo not drawn) | 0.0848 | 3.22 | 0.432 | 12.3 | 1.11 | 15.5 | 0.59 | 23.1 | 0.542 | > 57.7 | 0.362 | 12.6 | 0.558 | 18 | 0.348 | 8.86
C#Cc1cccc(NC(=O)Nc2cccc(NC(=O)CCl)c2)c1 | 15.2 | 48.6 | > 82.5 | > 82.5 | 25.7 | > 82.5 | > 82.5 | > 82.5 | 23.1 | > 82.5 | 17.8 | 53.5 | 32.7 | > 82.5 | 12.5 | 48.3
CCN(CC)CCC(CNc1c2ccc(Cl)cc2nc2ccc(OC)cc12)c1ccccc1 (stereo not drawn) | 0.555 | 2.1 | 1.32 | 6.09 | 1.33 | 3.8 | 1.36 | 4.2 | 1.26 | 3.6 | 0.219 | 0.664 | 1.76 | 3.31 | 1.33 | 3.85
CC1SC(c2cccc(Oc3ccccc3)c2)N(CCc2cccs2)C1=O (stereo not drawn) | 0.717 | 2.12 | 1.6 | 3.88 | 1.18 | 3.6 | 1.64 | 9.01 | 1.49 | 5.06 | 1.08 | 2.93 | 1.03 | 2.31 | 0.542 | 2.94
O=C(CN1C(=O)c2ccccc2C1=O)NC1(C(=O)O)CCCC1 | – | > 100 | – | > 100 | – | > 100 | – | > 100 | – | > 100 | – | > 100 | – | > 100 | – | > 100
COC(=O)[C@@H](C)C[C@H](Cc1ccccc1)NC(=O)c1cccc([C@@H](C[C@H](C(C)C)N(C)C(=O)[C@@H](NC(=O)[C@H]2CCCCN2C)C(C)C)OC(C)=O)n1 | < 0.00167 | 0.00263 | < 0.00167 | – | 0.0164 | > 16.7 | < 0.00167 | > 16.7 | 0.00243 | > 16.7 | < 0.00167 | > 16.7 | – | – | < 0.00167 | > 16.7
C=CC(=O)N1CC[C@@H](Oc2nc(Nc3ccc(N4CCC(N5CCN(C)CC5)CC4)cc3)c(C(N)=O)nc2CC)C1 | > 100 | > 100 | > 100 | > 100 | > 100 | > 100 | > 100 | > 100 | > 100 | > 100 | > 100 | > 100 | > 100 | > 100 | > 100 | > 100
COc1cc2c(c(OC)c1OC)-c1c(c3ccc([N+](=O)[O-])cc3c(=O)n1CCCN=[N+]=[N-])C2=O | 0.251 | 5.71 | 71.3 | > 100 | 14.4 | 80.7 | 29.7 | 98.3 | 13.6 | 68.8 | 94 | > 100 | 2.49 | 22.9 | > 100 | > 100
CCN(CC)CCCC(C)NC(=S)N/N=C(\C)c1ccccn1 (stereo not drawn) | 3.17 | 9.41 | 3.79 | > 100 | 3.19 | > 100 | 7.83 | > 100 | 2.87 | > 100 | 5.59 | > 100 | 5.54 | > 100 | 5.84 | > 100
O=C1c2cccc3cc4ccccc4c(c23)C(=O)N1CCCNCCNCCCN1C(=O)c2cccc3cc4ccccc4c(c23)C1=O | – | 1.46 | – | 2.04 | – | 2.18 | – | 2.23 | – | 0.337 | – | 0.555 | – | – | – | 0.387
COc1cc(OC)c(-c2oc3ccccc3c(=O)c2O)c(OC)c1 | – | > 29.2 | – | > 100 | – | > 100 | – | > 100 | – | > 100 | – | > 100 | – | – | – | > 100
Oc1c(Br)cc(Br)c2cccnc12 | – | – | 3.72 | 40.3 | 3.36 | > 100 | 3.99 | > 100 | 3.75 | > 100 | 6.55 | 26.1 | – | – | 3.45 | 24.8
COC(=O)c1cc2c([nH]c3ccccc32)c(-c2nc3cc(N(S(=O)(=O)c4ccc(C)cc4)S(=O)(=O)c4ccc(C)cc4)c(OC)cc3cc2CO)n1 | > 100 | > 100 | > 100 | > 100 | > 100 | > 100 | 75 | > 100 | > 100 | > 100 | > 100 | > 100 | > 100 | > 100 | – | –
CNCc1ccc(C)c(NC(=O)c2ccc(Nc3nc(-c4ccccc4)c4ccccc4n3)cc2)c1 | 1.86 | 3.57 | 2.88 | 7.65 | 2.09 | 4.26 | – | – | 1.85 | 3.93 | 1.86 | 3.98 | 1.9 | 3.66 | – | –
O=C1/C(=C/c2ccc([N+](=O)[O-])s2)Oc2ccc(Cl)cc21 | 0.198 | 0.435 | – | – | 0.405 | 1.53 | 0.512 | 1.55 | 0.33 | 4.91 | 2.21 | 5.49 | 0.26 | 0.624 | 0.298 | 0.97
Cc1cccc(NC(=O)c2sc3nc4c(cc3c2N)CCC4)c1C | 0.325 | 16.5 | 0.407 | 13.9 | 0.722 | 26 | 0.532 | 29.1 | 0.427 | 16.6 | – | – | 0.31 | 17.9 | 0.346 | 16.2
